In PMC9127750, “Structure-based design of CDC42 effector interaction inhibitors for the treatment of cancer” (Cell reports, 2022):
“And” between values parts separate entries of the source, which are not always exact repeats. Equal values may be shown once.

Test system: WM3248 melanoma cells, 486 antibodies
Experiment: Reverse phase protein arrays (RPPA)
Assay type: cell-based, Human
Excerpt: Pellets were snap frozen in liquid nitrogen and shipped to MD Anderson Cancer Center core RPPA facility for RPPA analysis (Table S5). Three biological replicates for each sample were generated.
Nomenclatures on the RPPA heatmaps: name_of_antibody.species_of_antibody.status_of_antibody. V - antibody validated; C - validation of antibody in progress; Q - antibody nonspecific; E – under evaluation; antibodies raised in M - mouse, G - goat, R - rabbit, or T - rat.

[1] = level 10 normalized to 0, mean of 3
[2] = level 10 normalized to 0, single replicates

**Q.** `CN(C)c1cccc(Nc2cc(-c3ccccc3)nc(C3CCNCC3)n2)c1` [ARN22089, N1,N1-dimethyl-N3-(6-phenyl-2-(piperidin-4-yl)pyrimidin-4-yl)benzene-1,3-diamine] was tested. Which “XIAP.R.C Norm_10 Average” value [1] did it give?
**A.** Its value is 0.978.

**Q.** And the “XPA.M.V Norm_10 Average” value [1]?
**A.** The value was 0.978.

**Q.** What about the “XPF.R.C Norm_10 Average” value [1] of the same molecule?
**A.** Its value is 0.977.

**Q.** And the “YAP.R.C Norm_10 Average” value [1]?
**A.** The value was 1.029.

**Q.** And the “YB1_pS102.R.V Norm_10 Average” value [1]?
**A.** The value was 0.937.

**Q.** And the “YES1.R.V Norm_10 Average” value [1]?
**A.** Its value is 1.017.

**Q.** What about the “YTHDF3.R.C Norm_10 Average” value [1] of the same molecule?
**A.** Its value is 1.101.

**Q.** And the “ZAP.70.R.V Norm_10 Average” value [1]?
**A.** The value was 0.957.

**Q.** What about the “ZEB1.R.V Norm_10 Average” value [1] of the same molecule?
**A.** The value was 0.964.

**Q.** What about the “TSC1.R.C Norm_10_1 to Norm_10_3” value [2] of the same molecule?
**A.** The value was 0.905 and 0.842.

**Q.** What about the “TTF1.R.V Norm_10_1 to Norm_10_3” value [2] of the same molecule?
**A.** Its value is 1.022 and 0.970 and 1.241.

**Q.** What about the “TUFM.R.V Norm_10_1 to Norm_10_3” value [2] of the same molecule?
**A.** Its value is 0.423 and 1.882 and 1.360.

**Q.** And the “Tuberin.R.V Norm_10_1 to Norm_10_3” value [2]?
**A.** The value was 1.169 and 0.526 and 0.811.

**Q.** And the “Tuberin_pT1462.R.V Norm_10_1 to Norm_10_3” value [2]?
**A.** The value was 1.492 and 0.717 and 0.984.

**Q.** And the “Twist.M.C Norm_10_1 to Norm_10_3” value [2]?
**A.** The value was 1.114 and 1.030.

**Q.** And the “Tyro3.R.V Norm_10_1 to Norm_10_3” value [2]?
**A.** The value was 1.080 and 1.777 and 1.302.

**Q.** What about the “U.Histone.H2B.R.C Norm_10_1 to Norm_10_3” value [2] of the same molecule?
**A.** Its value is 0.871 and 0.726.

**Q.** What about the “UBAC1.R.V Norm_10_1 to Norm_10_3” value [2] of the same molecule?
**A.** Its value is 0.932 and 1.030 and 1.078.

**Q.** And the “UBQLN4.M.C Norm_10_1 to Norm_10_3” value [2]?
**A.** Its value is 0.984 and 0.918 and 0.980.

**Q.** What about the “UGT1A.M.V Norm_10_1 to Norm_10_3” value [2] of the same molecule?
**A.** Its value is 1.017 and 1.128 and 1.006.

**Q.** And the “ULK1_pS757.R.C Norm_10_1 to Norm_10_3” value [2]?
**A.** Its value is 1.125 and 0.823 and 0.899.

**Q.** And the “UQCRC2.M.C Norm_10_1 to Norm_10_3” value [2]?
**A.** The value was 0.945 and 1.144 and 1.246.

**Q.** What about the “UVRAG.R.C Norm_10_1 to Norm_10_3” value [2] of the same molecule?
**A.** Its value is 1.050 and 0.851 and 0.904.

**Q.** What about the “VASP.R.V Norm_10_1 to Norm_10_3” value [2] of the same molecule?
**A.** The value was 0.815 and 0.894.

**Q.** What about the “VAV1.R.C Norm_10_1 to Norm_10_3” value [2] of the same molecule?
**A.** The value was 1.035 and 0.844 and 0.890.

**Q.** And the “VEGFR.2.R.V Norm_10_1 to Norm_10_3” value [2]?
**A.** The value was 0.901 and 0.958 and 1.012.

**Q.** What about the “VEGFR.2_pY1175.R.C Norm_10_1 to Norm_10_3” value [2] of the same molecule?
**A.** The value was 0.930 and 0.993.

**Q.** What about the “VHL.EPPK1.M.C Norm_10_1 to Norm_10_3” value [2] of the same molecule?
**A.** Its value is 0.587 and 1.522 and 0.982.

**Q.** What about the “VHL.R.C Norm_10_1 to Norm_10_3” value [2] of the same molecule?
**A.** Its value is 0.900 and 0.987.

**Q.** What about the “Vinculin.M.V Norm_10_1 to Norm_10_3” value [2] of the same molecule?
**A.** The value was 0.829 and 1.085 and 1.051.

**Q.** What about the “WIPI1.R.C Norm_10_1 to Norm_10_3” value [2] of the same molecule?
**A.** The value was 1.210 and 1.510 and 1.234.

**Q.** And the “WIPI2.R.C Norm_10_1 to Norm_10_3” value [2]?
**A.** The value was 1.209 and 0.707 and 0.915.

**Q.** And the “WTAP.R.V Norm_10_1 to Norm_10_3” value [2]?
**A.** The value was 0.900 and 1.764 and 1.008.

**Q.** And the “Wee1.R.C Norm_10_1 to Norm_10_3” value [2]?
**A.** Its value is 0.851 and 0.833 and 1.061.

**Q.** And the “Wee1_pS642.R.C Norm_10_1 to Norm_10_3” value [2]?
**A.** The value was 0.901 and 0.776 and 1.023.

**Q.** What about the “XBP.1.G.C Norm_10_1 to Norm_10_3” value [2] of the same molecule?
**A.** Its value is 0.989 and 1.187 and 1.403.

**Q.** What about the “XIAP.R.C Norm_10_1 to Norm_10_3” value [2] of the same molecule?
**A.** Its value is 1.022 and 1.000.

**Q.** And the “XPA.M.V Norm_10_1 to Norm_10_3” value [2]?
**A.** The value was 1.064.

**Q.** What about the “XPF.R.C Norm_10_1 to Norm_10_3” value [2] of the same molecule?
**A.** Its value is 0.948 and 0.944.

**Q.** And the “XRCC1.R.C Norm_10_1 to Norm_10_3” value [2]?
**A.** Its value is 0.931 and 1.213.

**Q.** What about the “YAP.R.C Norm_10_1 to Norm_10_3” value [2] of the same molecule?
**A.** The value was 0.955 and 1.252 and 0.879.

**Q.** And the “YAP_pS127.R.V Norm_10_1 to Norm_10_3” value [2]?
**A.** The value was 0.913 and 1.139 and 0.796.

**Q.** What about the “YB1_pS102.R.V Norm_10_1 to Norm_10_3” value [2] of the same molecule?
**A.** Its value is 0.840 and 1.032.

**Q.** What about the “YES1.R.V Norm_10_1 to Norm_10_3” value [2] of the same molecule?
**A.** The value was 1.000 and 0.982.

**Q.** What about the “YTHDF2.R.V Norm_10_1 to Norm_10_3” value [2] of the same molecule?
**A.** The value was 1.206 and 1.258.

**Q.** What about the “YTHDF3.R.C Norm_10_1 to Norm_10_3” value [2] of the same molecule?
**A.** Its value is 1.009 and 1.186 and 1.108.

**Q.** What about the “ZAP.70.R.V Norm_10_1 to Norm_10_3” value [2] of the same molecule?
**A.** Its value is 1.012 and 0.977 and 0.883.

**Q.** And the “ZEB1.R.V Norm_10_1 to Norm_10_3” value [2]?
**A.** The value was 0.854 and 1.114 and 0.924.

**Q.** And the “HLA.DQA1.R.V Norm_10 Average” value (level 10 vs 0)?
**A.** Its value is 0.993.

**Q.** And the “HLA.DR.DP.DQ.DX.R.C Norm_10 Average” value (level 10 vs 0)?
**A.** Its value is 1.057.

**Q.** What about the “HMHA1.R.V Norm_10 Average” value (level 10 vs 0) of the same molecule?
**A.** The value was 0.922.

**Q.** What about the “HNRNPK.R.V Norm_10 Average” value (level 10 vs 0) of the same molecule?
**A.** Its value is 1.030.

**Q.** What about the “HSP27.M.C Norm_10 Average” value (level 10 vs 0) of the same molecule?
**A.** The value was 0.958.

**Q.** What about the “HSP27_pS82.R.V Norm_10 Average” value (level 10 vs 0) of the same molecule?
**A.** Its value is 0.916.

**Q.** And the “HSP60.R.V Norm_10 Average” value (level 10 vs 0)?
**A.** Its value is 0.926.

**Q.** What about the “HSP70.R.C Norm_10 Average” value (level 10 vs 0) of the same molecule?
**A.** The value was 0.973.

**Q.** And the “Hexokinase.I.R.C Norm_10 Average” value (level 10 vs 0)?
**A.** Its value is 1.225.

**Q.** And the “Hexokinase.II.R.V Norm_10 Average” value (level 10 vs 0)?
**A.** Its value is 1.128.

**Q.** And the “Hif.1αR.C Norm_10 Average” value (level 10 vs 0)?
**A.** Its value is 1.156.

**Q.** What about the “Histone.H3.R.V Norm_10 Average” value (level 10 vs 0) of the same molecule?
**A.** Its value is 0.957.

**Q.** And the “IDO.R.C Norm_10 Average” value (level 10 vs 0)?
**A.** The value was 0.957.

**Q.** And the “IGF1R_pY1135_Y1136.R.V Norm_10 Average” value (level 10 vs 0)?
**A.** The value was 0.918.

**Q.** What about the “IGFBP2.R.V Norm_10 Average” value (level 10 vs 0) of the same molecule?
**A.** The value was 0.935.

**Q.** And the “IGFBP3.M.V Norm_10 Average” value (level 10 vs 0)?
**A.** Its value is 0.971.

**Q.** What about the “IGFRb.R.C Norm_10 Average” value (level 10 vs 0) of the same molecule?
**A.** The value was 0.953.

**Q.** And the “IL.6.R.C Norm_10 Average” value (level 10 vs 0)?
**A.** Its value is 0.924.

**Q.** What about the “IMP3.R.C Norm_10 Average” value (level 10 vs 0) of the same molecule?
**A.** Its value is 0.953.

**Q.** And the “INPP4b.R.C Norm_10 Average” value (level 10 vs 0)?
**A.** The value was 1.029.

**Q.** And the “IR.b.R.C Norm_10 Average” value (level 10 vs 0)?
**A.** The value was 0.981.

**Q.** What about the “IRF.1.R.V Norm_10 Average” value (level 10 vs 0) of the same molecule?
**A.** The value was 0.874.

**Q.** And the “IRF.3.R.V Norm_10 Average” value (level 10 vs 0)?
**A.** Its value is 0.967.

**Q.** And the “IRS1.R.V Norm_10 Average” value (level 10 vs 0)?
**A.** Its value is 0.929.

**Q.** And the “IRS2.R.C Norm_10 Average” value (level 10 vs 0)?
**A.** The value was 1.033.

**Q.** What about the “JAB1.M.C Norm_10 Average” value (level 10 vs 0) of the same molecule?
**A.** The value was 1.009.

**Q.** What about the “JNK2.R.V Norm_10 Average” value (level 10 vs 0) of the same molecule?
**A.** The value was 2.307.

**Q.** And the “JNK_pT183_Y185.R.C Norm_10 Average” value (level 10 vs 0)?
**A.** The value was 0.955.

**Q.** What about the “Jagged1.R.V Norm_10 Average” value (level 10 vs 0) of the same molecule?
**A.** Its value is 0.936.

**Q.** And the “Jak2.R.V Norm_10 Average” value (level 10 vs 0)?
**A.** The value was 0.959.

**Q.** And the “KAP1.R.V Norm_10 Average” value (level 10 vs 0)?
**A.** Its value is 1.103.

**Q.** And the “KEAP1.R.V Norm_10 Average” value (level 10 vs 0)?
**A.** The value was 1.017.

**Q.** And the “LAD1.R.V Norm_10 Average” value (level 10 vs 0)?
**A.** Its value is 0.908.

**Q.** What about the “LC3A.B.R.C Norm_10 Average” value (level 10 vs 0) of the same molecule?
**A.** The value was 1.064.
